The test system of assay [1] is SW1990 tumor cell line (Pancreas). Kind of assay: Cell profiling, SW1990. The settings on record: Homo sapiens. Format: cell-based. How it is done:
(§1) Cell viability assays were run using standard protocols known to those of skill in art. Cells were plated in 96 well plates at the density of 3,000-10,000 cells per well. Twenty four hours later, cells were treated with increasing concentration of test compounds (1 nM to 1 μM). After another 48 hour, cell survival was measured using CELL-TITER-GLO® reagent (Promega) following the protocol provided by the manufacture. The IC50 value was determined as the concentration of test compound that kills 50% of the cell population.

The test system of assay [2] is Lovo tumor cell line (Colon). Briefly: Cell profiling, Lovo. The class given is cell-based. The following applies: Homo sapiens. On the procedure:
as §1

Assay [3] relates to T98G tumor cell line (Glial Cells). Kind of assay: Cell profiling, T98G. The class given is cell-based. The following applies: Homo sapiens. On the procedure:
as §1

Assay [4] deals with A2058 (human melanoma) cell line. Kind of assay: Cell viability assay (CELL-TITER-GLO), A2058. The class given is cell-based. The settings on record: Table 8 cell profiling, A2058, Skin.
Assay [5] has as its system U937 (human leukemic monocyte lymphoma) cell line. Briefly: Cell viability assay (CELL-TITER-GLO), U937. Format: cell-based. The following applies: U-937, Table 8 cell profiling, U937, Blood.
For assay [6], the system named is HCC44 tumor cell line (Lung). Briefly: Cell profiling, HCC44. Format: cell-based. The following applies: Homo sapiens. How it is done: as §1
Assay [7] has as its system PL45 tumor cell line (Pancreas). Kind of assay: Cell profiling, PL45. The class given is cell-based. On the procedure: as §1
Assay [8] relates to SKMEL-5 tumor cell line (Skin). Briefly: Cell profiling, SKMEL-5. Format: cell-based. The following applies: Homo sapiens, SK-MEL-5; SKMEL-5, Skin. On the procedure:
as §1

In assay [9] the test system is HT29 tumor cell line (Colon). Briefly: Cell profiling, HT29. The class given is cell-based. The settings on record: Homo sapiens, HT-29. How it is done:
as §1

Assay [10] deals with MiaPaca-2 tumor cell line (Pancreas). Briefly: Cell profiling, MiaPaca-2. Format: cell-based. The following applies: Homo sapiens, MIA PaCa-2; MiaPaca-2, Pancreas. How it is done:
as §1

The subject of assay [11] is Panc-1 tumor cell line (Pancreas). Briefly: Cell profiling, Panc-1. Format: cell-based. The following applies: Homo sapiens; Panc-1, Pancreas. How it is done:
as §1

Assay [12] relates to BxPC3 tumor cell line (Pancreas). Kind of assay: Cell profiling, BxPC3. The class given is cell-based. The settings on record: Homo sapiens, BXPC-3. On the procedure: as §1
Assay [13] deals with NCI-H460 tumor cell line (Lung). Kind of assay: Cell profiling, NCI-H460. The class given is cell-based. The settings on record: Homo sapiens. On the procedure: as §1
Assay [14] deals with A375 tumor cell line (Skin). Kind of assay: Cell profiling, A375. Format: cell-based. The settings on record: Homo sapiens, A-375. On the procedure: as §1
For assay [15], the system named is A2058 (human melanoma) cell line. Briefly: Cell viability assay (CELL-TITER-GLO), A2058. Format: cell-based. The settings on record: A2058 cells, 48 hour treatment, 1 nM to 1 μM. How it is done:
as §1
(§2) Cell viability data generated according to the protocol described herein was generated for representative compounds in the A2058 (human melanoma) and U937 (human leukemic monocyte lymphoma) cell lines. The compound of Example 16 (“Compound J”) was used as a reference compound.

The subject of assay [16] is MDA-MB231 tumor cell line (Breast). Kind of assay: Cell profiling, MDA-MB231. Format: cell-based. The settings on record: Homo sapiens, MDA-MB-231. How it is done: as §1
Assay [17] relates to U937 (human leukemic monocyte lymphoma) cell line. Briefly: Cell viability assay (CELL-TITER-GLO), U937. The class given is cell-based. The settings on record: U-937, U937 cells, 48 hour treatment, 1 nM to 1 μM. On the procedure: as §1, §2
Assay [18] deals with Colo205 tumor cell line (Colon). Briefly: Cell profiling, Colo205. Format: cell-based. The settings on record: Homo sapiens, COLO 205. How it is done: as §1
The subject of assay [19] is NCI-H226 tumor cell line (Lung). Kind of assay: Cell profiling, NCI-H226. The settings on record: Homo sapiens. Format: cell-based. On the procedure:
as §1

The subject of assay [20] is MiaPaca (pancreatic cancer) cells. Kind of assay: MiaPaca xenograft model, tumor free animals. The class given is in vivo, Athymic nude mice. The following applies: 20 mg/kg, tail vein injection, 6 injections (days 9, 11, 14, 16, 18, 21), at 35 days post tumor cell injection, 7 mice/group. On the procedure: Animals: Athymic nude mice, female, 6-7 weeks old, 20-25 g. Animals bearing with 180-400 mg tumors were selected for experiment. 7 mice/group.
Administration: Tail vein injection, 200 μL/mouse, to provide the dose indicated.
Dosing schedule: 6 injections were given on the days indicated post-tumor cell injection.
Controls: Vehicle, Compound J at 20 mg/kg.
Test Compound preparation: Compound J and all test compounds were dissolved in 50% Cremophore/EtOH (1:1) at 10 mg/mL as stock solution. Each compound solution was diluted with saline before injection to the concentration indicated.
Xenograft Model: MiaPaca (pancreatic cancer) cells
Dosing schedule: 6 injections were given on days 9, 11, 14, 16, 18 and 21 post-tumor cell injection.
Test Compounds: Example 23, Example 24, and Example 53, at 20 mg/kg.
For animals treated with the compound of Example 24 at 20 mg/kg, 7 of 7 animals were tumor free at 35 days post tumor cell injection.

The test system of assay [21] is G361 tumor cell line (Skin). Briefly: Cell profiling, G361. The class given is cell-based. The settings on record: Homo sapiens, G-361. On the procedure: as §1
The test system of assay [22] is DU145 tumor cell line (Prostate). Briefly: Cell profiling, DU145. The class given is cell-based. The following applies: Homo sapiens, DU-145. On the procedure:
as §1

In assay [23] the test system is DLD-1 tumor cell line (Colon). Kind of assay: Cell profiling, DLD-1. The following applies: Homo sapiens; DLD-1, Colon. The class given is cell-based. On the procedure: as §1
The test system of assay [24] is HCC1437 tumor cell line (Lung). Briefly: Cell profiling, HCC1437. Format: cell-based. On the procedure:
as §1

Assay [25] concerns SKMES-1 tumor cell line (Lung). Kind of assay: Cell profiling, SKMES-1. The class given is cell-based. The following applies: Homo sapiens, SK-MES-1; SKMES-1, Lung. On the procedure:
as §1

The test system of assay [26] is MDA-MB435 tumor cell line (Breast). Kind of assay: Cell profiling, MDA-MB435. Format: cell-based. The following applies: Homo sapiens, MDA-MB-435. On the procedure: as §1

Where only a bound is given, the exact number is not on record here.

As to `CCC(O)(CC)C(=O)N[C@H]1Cc2ccc3c(c2)C24C5=C(N=C(O5)[C@H](C(C)C)NC1=O)c1ncc(o1)-c1c[nH]c5cccc(c15)-c1cccc2c1NC4O3` (stereo in doubt) [Example 24], the IC50 in assay [1] worked out at 0.36 µM; in assay [2] it was 0.15 µM; in [3], 0.067 µM; in [4] it was 0.093 µM; in [5], 0.044 µM; in [6] it was 0.036 µM. Moreover, the half-inhibitory concentration (IC50) in [7] worked out at 0.113 µM; in assay [8], 0.07 µM; in assay [9], 0.09 µM; in assay [10] it was 0.111 µM; in [11], 0.288 µM; in assay [12] it was 0.213 µM. Further, the IC50 was found to be 0.242 µM in assay [13]; 0.162 µM in [14]; 0.105 µM in assay [15]; 0.234 µM in assay [16]; 0.062 µM in assay [17]; 0.144 µM in [18]. In addition, the half-maximal inhibitory concentration (IC50) in [19] came out at 0.104 µM; in assay [21], 0.275 µM; in [22], 0.057 µM; in assay [23], 0.515 µM; in assay [24] it was 0.195 µM; in [25] it was 0.47 µM. In assay [26], this molecule gave an IC50 of 0.029 µM. The “Tumor-free animals out of 7” value in [20] is on record as 7 of 7; in assay [20] (listed as Ex. 24) it was 7/7 (35).

`CC(C)[C@H](O)C(=O)N[C@H]1Cc2ccc3c(c2)[C@]24C5=C(N=C(O5)[C@H](C(C)C)NC1=O)c1ncc(o1)-c1c[nH]c5cccc(c15)-c1cccc2c1NC4O3` (stereo partly shown) [Example 16, reference compound]: the IC50 was found to be 0.043 µM in assay [15] and 0.034 µM in assay [17]. Also, the “Tumor-free animals out of 7” value in assay [20] was 0/7 (35).

For `CCC(C)(O)C(=O)NC1Cc2ccc3c(c2)[C@]24C5=C(N=C(O5)[C@H](C(C)C)NC1=O)c1ncc(o1)-c1c[nH]c5cccc(c15)-c1cccc2c1NC4O3` (stereo partly shown) [Example 23], the values for the half-maximal inhibitory concentration (IC50) in assay [15] and in assay [17] were 0.124 µM and 0.156 µM, respectively. Besides, the “Tumor-free animals out of 7” value in assay [20] is listed as 0/7 (35).

On to `CC(C)[C@@H]1NC(=O)C(NC(=O)[C@H]2CCOC2)Cc2ccc3c(c2)[C@]24C5=C(N=C1O5)c1ncc(o1)-c1c[nH]c5cccc(c15)-c1cccc2c1NC4O3` (stereo partly shown) [Example 53], for which the results for the IC50 in [15] and in assay [17] were 0.209 µM and 0.078 µM, respectively. For the same molecule, in assay [20], the “Tumor-free animals out of 7” value is on record as 1/7 (35).

Consider `CC(C)[C@H](O)C(=O)N[C@H]1Cc2ccc3c(c2)C24C5=C(N=C(O5)[C@H](C(C)C)NC1=O)c1ncc(o1)-c1c[nH]c5cccc(c15)-c1cc(Br)cc2c1N[C@H]4O3` (stereo partly shown) [Example 84], for which the IC50 amounted to 0.51 µM in [15] and 0.648 µM in [17].

Turning to `CC(C)[C@H](O)C(=O)N[C@H]1Cc2ccc3c(c2)C24C5=C(N=C(O5)[C@H](C(C)C)NC1=O)c1nc(Cl)c(o1)-c1c[nH]c5cccc(c15)-c1cccc2c1N[C@H]4O3` (stereo partly shown) [Example 86], the IC50 came out at 0.081 µM in assay [15] and 0.084 µM in assay [17].

Regarding `CCC(O)(CC)C(=O)N[C@H]1Cc2ccc3c(c2)C24C5=C(N=C(O5)[C@H](C(C)C)NC1=O)c1ncc(o1)-c1c[nH]c5cccc(c15)-c1cc(Br)cc2c1N[C@H]4O3` (stereo partly shown) [Example 87], the 50% inhibitory concentration (IC50) in [15] and in assay [17] was more than 1 µM each time.

`CCC(O)(CC)C(=O)N[C@H]1Cc2ccc3c(c2)C24C5=C(N=C(O5)[C@H](C(C)C)NC1=O)c1nc(Br)c(o1)-c1c[nH]c5cccc(c15)-c1cc(Br)cc2c1N[C@H]4O3` (stereo partly shown) [Example 88]: the IC50 in [15] and in assay [17] was more than 1 µM in each case.

Turning to `CC(C)[C@H](O)C(=O)N[C@H]1Cc2ccc3c(c2)C24C5=C(N=C(O5)[C@H](C(C)C)NC1=O)c1nc(Br)c(o1)-c1c(Cl)[nH]c5cccc(c15)-c1cccc2c1N[C@H]4O3` (stereo partly shown) [Example 89], the IC50 in [15] is 0.158 µM; in assay [17] it was 0.079 µM.

With `CCC(O)(CC)C(=O)NC1Cc2ccc3c(c2)C24C5=C(N=C(O5)[C@H](C(C)C)NC1=O)c1nc(Cl)c(o1)-c1c(Cl)[nH]c5cccc(c15)-c1cccc2c1N[C@H]4O3` (stereo partly shown) [Example 90], the figures for the IC50 in assay [15] and in [17] were 0.375 µM and 0.302 µM, respectively.

With `CCC(O)(CC)C(=O)NC1Cc2ccc3c(c2)C24C5=C(N=C(O5)[C@H](C(C)C)NC1=O)c1nc(Cl)c(o1)-c1c(Cl)[nH]c5cccc(c15)-c1cc(Cl)cc2c1N[C@H]4O3` (stereo partly shown) [Example 91], the 50% inhibitory concentration (IC50) in assay [15] and in assay [17] was more than 1 µM throughout.

As to `CC(C)[C@@H]1NC(=O)C(NC(C[N+](=O)[O-])C(F)(F)F)Cc2ccc3c(c2)C24C5=C(N=C1O5)c1ncc(o1)-c1c[nH]c5cccc(c15)-c1cccc2c1N[C@H]4O3` (stereo partly shown) [Example 92], the IC50 in [15] was more than 1 µM; in [17] it was 0.75 µM.

For the origin of these results see patent publication US8476256B2, “Diazonamide analogs” (Joyant Pharmaceuticals, Inc., priority 2008, dated 2013).
